Source: ChEMBL document CHEMBL1158664, “New compounds with DNA strand-scission activity from the combined leaf and stem of Uvaria hamiltonii” (J Nat Prod, 1998)
Values after ≈ are worked out from the molar mass of the structure shown. Active and inactive are the calls of the source. The calls are words filed in the database; no cut-off is given here.

What was measured:
[1] = Induction of strand scission activity in DNA assessed as ratio of 2.5 uM drug-induced to bleomycin-induced relaxation of supercoiled DNA
[2] = Induction of strand scission activity in DNA assessed as relaxation of supercoiled DNA at 2.5 ug/ml; set-up: scale not given: the % may be the effect or the level left
[3] = Cytotoxicity against human 9KB cells; assay type: functional, cell-based
[4] = Induction of strand scission activity in DNA assessed as ratio of 25 uM drug-induced to bleomycin-induced relaxation of supercoiled DNA
[5] = Induction of strand scission activity in DNA assessed as relaxation of supercoiled DNA at 25 ug/ml; set-up: scale not given: the % may be the effect or the level left

| Compound | Activity [1] | Activity [2] [%] | IC50 [3] [µg/mL] | Activity [4] | Activity [5] |
| --- | --- | --- | --- | --- | --- |
| COc1cc2c(c(OC)c1OC)C(=O)/C(=C/c1ccc(O)c(O)c1)O2 | 10 | 83 | > 20 | – | – |
| COc1cc2c(c(OC)c1OC)C(=O)CC(c1ccc(O)c(O)c1)O2 (racemic) [HAMILTONE B] | – | – | > 20 | 1 | 76% |
| COc1cc(O)c(C(=O)/C=C/c2ccc(O)c(O)c2)c(OC)c1OC [HAMILCONE] | – | – | 8 (≈ 23.1 µM) | 0.6 | 47% |
| COc1ccc([C@@H]2CC(=O)c3c(cc(OC)c(O)c3OC)O2)cc1 [HAMILTONE A] | – | – | > 20 | 1.1 | 88% |
| O=C(OC[C@@]12C=C[C@@H](OC(=O)c3ccccc3)[C@@H](O)[C@H]1Cc1cc(O)ccc1O2)c1ccccc1 [HEMILXANTHENE] | – | – | 10 (≈ 21.2 µM) | inactive | inactive |
